Experimental data: ChEMBL document CHEMBL1212752, “Efficacy of posaconazole in a murine disseminated infection by Candida tropicalis” (2010)
Values after ≈ are worked out from the molar mass of the structure shown. Active and inactive are the calls of the source. The rule behind the calls is not given here.

What was measured:
Candida tropicalis [1] = test: Antifungal activity against Candida tropicalis FMR 9726 assessed as inhibition of growth by broth dilution method; format: functional
Candida tropicalis [2] = test: Antifungal activity against Candida tropicalis FMR 10239 infected in immunosuppressed OF1 mouse assessed as reduction in fungal tissue burden in mouse spleen at 50 mg/kg, po qd for 5 days; format: functional, organism-based; parameters: dose 50 mg/kg
Candida tropicalis [3] = test: Antifungal activity against Candida tropicalis FMR 8895 infected in immunosuppressed OF1 mouse assessed as reduction in fungal tissue burden in mouse kidney at 50 mg/kg, po qd for 5 days; format: functional, organism-based; parameters: dose 50 mg/kg
Candida tropicalis [4] = test: Antifungal activity against Candida tropicalis FMR 10239 assessed as compound concentration causing =>99% reduction in microbial growth; format: functional
Candida tropicalis [5] = test: Antifungal activity against Candida tropicalis FMR 9726 infected in immunosuppressed OF1 mouse assessed as prolongation of mouse survival at 25 mg/kg, po bid for 5 days; format: functional, organism-based; parameters: dose 25 mg/kg
Candida tropicalis [6] = test: Antifungal activity against Candida tropicalis FMR 8895 infected in immunosuppressed OF1 mouse assessed as prolongation of mouse survival at 25 mg/kg, po bid for 5 days; format: functional, organism-based; parameters: dose 25 mg/kg
Candida tropicalis [7] = test: Antifungal activity against Candida tropicalis FMR 9727 infected in immunosuppressed OF1 mouse assessed as prolongation of mouse survival at 50 mg/kg, po qd for 5 days; format: functional, organism-based; parameters: dose 50 mg/kg
Candida tropicalis [8] = test: Antifungal activity against Candida tropicalis FMR 10333 assessed as compound concentration causing =>99% reduction in microbial growth; format: functional
Candida tropicalis [9] = test: Antifungal activity against Candida tropicalis FMR 8895 infected in immunosuppressed OF1 mouse assessed as reduction in fungal tissue burden in mouse spleen at 25 mg/kg, po bid for 5 days; format: functional, organism-based; parameters: dose 25 mg/kg
Candida tropicalis [10] = test: Antifungal activity against Candida tropicalis FMR 8896 assessed as compound concentration causing =>99% reduction in microbial growth; format: functional
Candida tropicalis [11] = test: Antifungal activity against Candida tropicalis FMR 8895 infected in immunosuppressed OF1 mouse assessed as reduction in fungal tissue burden in mouse spleen at 50 mg/kg, po qd for 5 days; format: functional, organism-based; parameters: dose 50 mg/kg
Candida tropicalis [12] = test: Antifungal activity against Candida tropicalis FMR 10240 assessed as compound concentration causing =>99% reduction in microbial growth; format: functional
Candida tropicalis [13] = test: Antifungal activity against Candida tropicalis FMR 9726 infected in immunosuppressed OF1 mouse assessed as reduction in fungal tissue burden in mouse kidney at 50 mg/kg, po qd for 5 days; format: functional, organism-based; parameters: dose 50 mg/kg
Candida tropicalis [14] = test: Antifungal activity against Candida tropicalis FMR 10241 assessed as inhibition of growth by broth dilution method; format: functional
Candida tropicalis [15] = test: Antifungal activity against Candida tropicalis FMR 10236 assessed as compound concentration causing =>99% reduction in microbial growth; format: functional
Candida tropicalis [16] = test: Antifungal activity against Candida tropicalis FMR 8895 assessed as compound concentration causing =>99% reduction in microbial growth; format: functional
Candida tropicalis [17] = test: Antifungal activity against Candida tropicalis FMR 9726 infected in immunosuppressed OF1 mouse assessed as reduction in fungal tissue burden in mouse spleen at 25 mg/kg, po bid for 5 days; format: functional, organism-based; parameters: dose 25 mg/kg
Candida tropicalis [18] = test: Antifungal activity against Candida tropicalis FMR 10237 assessed as inhibition of growth by broth dilution method; format: functional
Candida tropicalis [19] = test: Antifungal activity against Candida tropicalis FMR 10237 infected in immunosuppressed OF1 mouse assessed as prolongation of mouse survival at 25 mg/kg, po bid for 5 days; format: functional, organism-based; parameters: dose 25 mg/kg
Candida tropicalis [20] = test: Antifungal activity against Candida tropicalis FMR 10237 infected in immunosuppressed OF1 mouse assessed as reduction in fungal tissue burden in mouse spleen at 25 mg/kg, po bid for 5 days; format: functional, organism-based; parameters: dose 25 mg/kg
Candida tropicalis [21] = test: Antifungal activity against Candida tropicalis FMR 8897 assessed as inhibition of growth by broth dilution method; format: functional
Candida tropicalis [22] = test: Antifungal activity against Candida tropicalis FMR 9726 infected in immunosuppressed OF1 mouse assessed as reduction in fungal tissue burden in mouse spleen at 50 mg/kg, po qd for 5 days; format: functional, organism-based; parameters: dose 50 mg/kg
Candida tropicalis [23] = test: Antifungal activity against Candida tropicalis FMR 10234 assessed as compound concentration causing =>99% reduction in microbial growth; format: functional
Candida tropicalis [24] = test: Antifungal activity against Candida tropicalis FMR 8895 infected in immunosuppressed OF1 mouse assessed as reduction in fungal tissue burden in mouse kidney at 25 mg/kg, po bid for 5 days; format: functional, organism-based; parameters: dose 25 mg/kg
Candida tropicalis [25] = test: Antifungal activity against Candida tropicalis FMR 10235 assessed as compound concentration causing =>99% reduction in microbial growth; format: functional
Candida tropicalis [26] = test: Antifungal activity against Candida tropicalis FMR 9727 assessed as inhibition of growth by broth dilution method; format: functional
Candida tropicalis [27] = test: Antifungal activity against Candida tropicalis FMR 10232 assessed as inhibition of growth by broth dilution method; format: functional
Candida tropicalis [28] = test: Antifungal activity against Candida tropicalis FMR 10239 infected in immunosuppressed OF1 mouse assessed as prolongation of mouse survival at 50 mg/kg, po qd for 5 days; format: functional, organism-based; parameters: dose 50 mg/kg
Candida tropicalis [29] = test: Antifungal activity against Candida tropicalis FMR 8898 assessed as compound concentration causing =>99% reduction in microbial growth; format: functional
Candida tropicalis [30] = test: Antifungal activity against Candida tropicalis FMR 9726 assessed as compound concentration causing =>99% reduction in microbial growth; format: functional
Candida tropicalis [31] = test: Antifungal activity against Candida tropicalis FMR 9727 infected in immunosuppressed OF1 mouse assessed as reduction in fungal tissue burden in mouse kidney at 25 mg/kg, po bid for 5 days; format: functional, organism-based; parameters: dose 25 mg/kg
Candida tropicalis [32] = test: Antifungal activity against Candida tropicalis FMR 9727 infected in immunosuppressed OF1 mouse assessed as reduction in fungal tissue burden in mouse spleen at 25 mg/kg, po bid for 5 days; format: functional, organism-based; parameters: dose 25 mg/kg

Q: With `CC[C@@H]([C@H](C)O)n1ncn(-c2ccc(N3CCN(c4ccc(OC[C@@H]5CO[C@@](Cn6cncn6)(c6ccc(F)cc6F)C5)cc4)CC3)cc2)c1=O` [POSACONAZOLE] as the compound, how does the MIC50 (Candida tropicalis [1]) read?
A: 0.5 µg/mL (≈ 0.713 µM)

Q: And the Activity (Candida tropicalis [2])?
A: Active

Q: And the Activity (Candida tropicalis [3])?
A: inactive

Q: What about the MFC (Candida tropicalis [4]) of the same compound?
A: 1 µg/mL (≈ 1.43 µM)

Q: What about the Activity (Candida tropicalis [5]) of the same compound?
A: Active

Q: And the Activity (Candida tropicalis [6])?
A: Active

Q: And the Activity (Candida tropicalis [7])?
A: Active

Q: And the MFC (Candida tropicalis [8])?
A: > 16 µg/mL

Q: And the Activity (Candida tropicalis [9])?
A: inactive

Q: And the MFC (Candida tropicalis [10])?
A: > 16 µg/mL

Q: And the Activity (Candida tropicalis [11])?
A: inactive

Q: What about the MFC (Candida tropicalis [12]) of the same compound?
A: > 16 µg/mL

Q: What about the Activity (Candida tropicalis [13]) of the same compound?
A: Active

Q: What about the MIC50 (Candida tropicalis [14]) of the same compound?
A: 0.125 µg/mL (≈ 0.178 µM)

Q: And the MFC (Candida tropicalis [15])?
A: > 16 µg/mL

Q: What about the MFC (Candida tropicalis [16]) of the same compound?
A: > 16 µg/mL

Q: And the Activity (Candida tropicalis [17])?
A: Active

Q: What about the MIC50 (Candida tropicalis [18]) of the same compound?
A: 1 µg/mL (≈ 1.43 µM)

Q: And the Activity (Candida tropicalis [19])?
A: Active

Q: And the Activity (Candida tropicalis [20])?
A: Active

Q: What about the MIC50 (Candida tropicalis [21]) of the same compound?
A: 0.06 µg/mL (≈ 0.0856 µM)

Q: And the Activity (Candida tropicalis [22])?
A: Active

Q: What about the MFC (Candida tropicalis [23]) of the same compound?
A: > 16 µg/mL

Q: What about the Activity (Candida tropicalis [24]) of the same compound?
A: inactive

Q: And the MFC (Candida tropicalis [25])?
A: > 16 µg/mL

Q: What about the MIC50 (Candida tropicalis [26]) of the same compound?
A: < 0.03 µg/mL

Q: What about the MIC50 (Candida tropicalis [27]) of the same compound?
A: 0.06 µg/mL (≈ 0.0856 µM)

Q: And the Activity (Candida tropicalis [28])?
A: Active

Q: And the MFC (Candida tropicalis [29])?
A: > 16 µg/mL

Q: What about the MFC (Candida tropicalis [30]) of the same compound?
A: > 16 µg/mL

Q: What about the Activity (Candida tropicalis [31]) of the same compound?
A: Active

Q: And the Activity (Candida tropicalis [32])?
A: Active
